Measurements reported in US20110144345A1, “SULFOXYIMINO-SUBSTITUTED BENZOYL DERIVATIVE AND HERBICIDE” (NIPPON SODA CO., LTD., priority 2008, published 2011).

Tests used:
Echinochloa crus-galli = assay: Paddy pot test, herbicidal effect on Echinochloa crus-galli; type: in vivo; parameters: scale not given here; conditions: Screening, 63 g/ha, applied at 1.5-leaf stage, examined after 3 weeks
Description: (§1) Plastic pots having an area of 100 cm^2 and a depth of 10 cm were filled with paddy soil which is puddled by adding water, and seeds of Echinochloa crus-galli and Scirpus juncoides were planted in the pots. After seeding, rice plants at the 2.5-leaf stage were transplanted and the pots were filled with water. The rice plants were grown in a greenhouse. […] The herbicidal effects and harmful effects on the rice plants were examined after 3 weeks. Herbicidal effects were examined according to the examination criteria described below and were represented by the herbicidal index. [table] […] [formula]

Scirpus juncoides = assay: Paddy pot test, herbicidal effect on Scirpus juncoides; type: in vivo; parameters: scale not given here; conditions: Screening, 63 g/ha, examined after 3 weeks
Description: as §1

rice plants = assay: Paddy pot test, harmful effects on transplanted rice plants; type: in vivo; parameters: scale not given here; conditions: Screening, 63 g/ha, applied at Echinochloa crus-galli 1.5-leaf stage, examined after 3 weeks
Description: as §1

Compound	melting point [°C]	also measured
Cn1ncc(C(=O)c2ccc(OCc3ccccc3)c(N=S3(=O)CCCCC3)c2Cl)c1O [Example 66]	95 to 97	–
COC(=O)c1ccc(C(=O)C(C#N)C(=O)C2CC2)c(Cl)c1N=S1(=O)CCCCC1 (stereo not drawn) [Example 165]	–	Echinochloa crus-galli (herbicidal index) (Echinochloa crus-galli): 5; Scripus juncoides (herbicidal index) (Scirpus juncoides): 8; Rice (harmful effects on the rice plants, index) (rice plants): 0
COc1ccc(C(=O)c2cnn(C)c2OCc2ccc3ccccc3c2)c(Cl)c1N=S(C)(C)=O [Example 151]	–	Echinochloa crus-galli (herbicidal index) (Echinochloa crus-galli): 6; Scripus juncoides (herbicidal index) (Scirpus juncoides): 5; Rice (harmful effects on the rice plants, index) (rice plants): 0
COc1ccc(C(=O)c2cnn(C)c2O)c(OC)c1N=S1(=O)CCCCC1 [Example 99]	116 to 118	–
COc1ccc(C(=O)c2cnn(C)c2OC(=O)SC)c(Cl)c1N=S(C)(=O)C(C)C (stereo not drawn) [Example 211]	–	Echinochloa crus-galli (herbicidal index) (Echinochloa crus-galli): 6; Scripus juncoides (herbicidal index) (Scirpus juncoides): 8; Rice (harmful effects on the rice plants, index) (rice plants): 0
Cc1ccc(C(=O)c2cnn(C)c2O)c(C)c1N=S(C)(C)=O [Example 168]	133 to 135	–
Cn1ncc(C(=O)c2ccc(OC3CCCC3)c(N=S3(=O)CCCCC3)c2Cl)c1O [Example 49]	145 to 148	–
COc1ccc(C(=O)c2c(C3CC3)nn(C)c2O)c(Cl)c1N=S1(=O)CCCCC1 [Example 56]	145 to 147	–
CCn1ncc(C(=O)c2ccc(OC)c(N=S3(=O)CCCCC3)c2Cl)c1O [Example 4]	137 to 139	–
Cn1ncc(C(=O)c2cccc(N=S3(=O)CCCCC3)c2Cl)c1O [Example 39]	177 to 179	–
CCOC(=O)c1ccc(C(=O)c2cnn(C)c2O)c(Cl)c1N=S1(=O)CCCCC1 [Example 47]	88 to 91	–
COC(=O)c1ccc(C(=O)c2cnn(C)c2O)c(Br)c1N=S1(=O)CCOCC1 [Example 69]	158 to 164	–
CCOc1ccc(C(=O)c2cnn(C)c2O)c(Cl)c1N=S1(=O)CCCCC1 [Example 12]	88 to 90	–
CCn1ncc(C(=O)c2ccc(OC)c(N=S3(=O)CCCCC3)c2[N+](=O)[O-])c1O [Example 77]	190 to 192	–
COc1ccc(C(=O)c2cnn(C)c2O)c([N+](=O)[O-])c1N=S1(=O)CCCCC1 [Example 76]	179 to 181	–
Cn1ncc(C(=O)c2ccc(OCC(F)(F)F)c(N=S3(=O)CCCCC3)c2Cl)c1O [Example 144]	97 to 99	–
COc1ccc(C(=O)c2cnn(C(C)(C)C)c2O)c(Cl)c1N=S1(=O)CCCCC1 [Example 88]	200 to 202	–
Cn1ncc(C(=O)c2ccc(C#N)c(N=S3(=O)CCCCC3)c2Cl)c1O [Example 44]	192 to 196	–
CCn1ncc(C(=O)c2ccc(C(=O)OC)c(N=S3(=O)CCOCC3)c2Br)c1O [Example 74]	210 to 215	–
CSc1ccc(C(=O)c2cnn(C)c2O)c(Cl)c1N=S1(=O)CCCCC1 [Example 42]	157 to 159	–
COc1ccc(C(=O)C2=C(O)CCCC2=O)c(OC)c1N=S1(=O)CCCCC1 [Example 92]	129 to 131	–
CCOc1c(C(=O)c2cnn(CC)c2O)ccc(OC)c1N=S1(=O)CCCCC1 [Example 163]	124 to 126	–

Compound	melting point [°C]	also measured
COC(=O)c1ccc(C(=O)C2=C(O)CCCC2=O)c(Cl)c1N=S(C)(C)=O [Example 160]	135 to 137	–
COC(=O)c1ccc(C(=O)c2cnn(C)c2O)c(Cl)c1N=S1(=O)CCOCC1 [Example 25]	147 to 149	–
COC(=O)c1ccc(C(=O)c2cnn(C)c2O)c(Cl)c1N=S1(=O)CCCCC1 [Example 21]	204 to 206	–
CCOc1ccc(C(=O)c2cnn(C)c2O)c(OC)c1N=S1(=O)CCCCC1 [Example 175]	109 to 111	–
CCS(=O)(CC)=Nc1c(OC)ccc(C(=O)c2cnn(C)c2O)c1OC [Example 140]	96 to 98	–
CCn1ncc(C(=O)c2ccc(C(=O)OC)c(N=S3(=O)CCCCC3)c2Cl)c1O [Example 30]	201 to 203	–
CC(=O)OCc1ccc(C(=O)c2cnn(C)c2O)c(Cl)c1N=S1(=O)CCCCC1 [Example 83]	64 to 68	–
Cn1ncc(C(=O)c2cccc(N=S3(=O)CCCCC3)c2)c1O [Example 35]	112 to 113	–
CCOc1c(C(=O)c2cnn(C)c2O)ccc(OC)c1N=S1(=O)CCCCC1 [Example 156]	111 to 113	–
COCc1ccc(C(=O)c2cnn(C)c2O)c(Cl)c1N=S1(=O)CCCCC1 [Example 52]	78 to 82	–
CCS(=O)(CC)=Nc1c(C(=O)OC)ccc(C(=O)c2cnn(C)c2O)c1Cl [Example 26]	69 to 73	–
CON=Cc1ccc(C(=O)c2cnn(C)c2O)c(Cl)c1N=S1(=O)CCCCC1 [Example 55]	98 to 105	–
COC(=O)/C=C/c1ccc(C(=O)c2cnn(C)c2O)c(Cl)c1N=S1(=O)CCCCC1 [Example 91]	145 to 150	–
CSc1ccc(C(=O)C2=C(O)CCCC2=O)c(Cl)c1N=S1(=O)CCCCC1 [Example 41]	178 to 180	–
COc1ccc(C(=O)C(C#N)C(=O)C2CC2)c(Cl)c1N=S1(=O)CCCCC1 (stereo not drawn) [Example 5]	154 to 156	–
O=C1CCCC(O)=C1C(=O)c1ccc(-c2ccccc2)c(N=S2(=O)CCCCC2)c1Cl [Example 23]	166 to 168	–
CCS(=O)(CC)=Nc1c(C)ccc(C(=O)c2cnn(C)c2O)c1C [Example 167]	126 to 128	–
CSc1c(C(=O)c2cnn(C)c2O)ccc(C(F)(F)F)c1N=S1(=O)CCCCC1 [Example 169]	155 to 157	–
O=C1CCCC(O)=C1C(=O)c1ccc(OCc2ccccc2)c(N=S2(=O)CCCCC2)c1Cl [Example 65]	152 to 155	–
COC(=O)c1ccc(C(=O)c2cnn(C)c2O)cc1N=S1(=O)CCCCC1 [Example 96]	133 to 137	–
CC(C)Oc1ccc(C(=O)c2cnn(C)c2O)c(Cl)c1N=S1(=O)CCCCC1 [Example 16]	139 to 141	–
Cn1ncc(C(=O)c2cccc(N=S3(=O)CCCCC3)c2F)c1O [Example 170]	162 to 164	–

Second part, led by results:

melting point [°C]	Compound	also measured
88 to 91	COc1ccc(C(=O)c2cnn(C)c2O)c(Cl)c1N=S(C)(=O)c1ccccc1 (stereo not drawn) [Example 249]	–
135 to 139	CC(=O)Oc1ccc(C(=O)c2cnn(C)c2O)c(Cl)c1N=S1(=O)CCCCC1 [Example 189]	–
77 to 79	COCCOCOc1ccc(C(=O)c2cnn(C)c2O)c(Cl)c1N=S1(=O)CCCCC1 [Example 259]	–
106 to 108	Cn1ncc(C(=O)c2ccc(OCC(F)(F)C(F)(F)F)c(N=S3(=O)CCCCC3)c2Cl)c1O [Example 242]	–
85 to 87	CCCOc1ccc(C(=O)c2cnn(C)c2O)c(Cl)c1N=S1(=O)CCCCC1 [Example 254]	–
169 to 171	C#CCOc1ccc(C(=O)c2cnn(C)c2O)c(Cl)c1N=S1(=O)CCCCC1 [Example 205]	–
93 to 95	COCOc1ccc(C(=O)c2cnn(C)c2O)c(Cl)c1N=S1(=O)CCCCC1 [Example 221]	–
95 to 97	Cn1ncc(C(=O)c2ccc(OC[S+](C)[O-])c(N=S3(=O)CCCCC3)c2Cl)c1O (stereo not drawn) [Example 245]	–
188 to 190	Cn1ncc(C(=O)c2ccc(OCC3CC3)c(N=S3(=O)CCCCC3)c2Cl)c1O [Example 215]	–
159 to 161	CSC(=O)Oc1c(C(=O)c2ccc(OCCC3OCCO3)c(N=S3(=O)CCCCC3)c2Cl)cnn1C [Example 200]	–
104 to 106	Cn1ncc(C(=O)c2ccc(OCS(C)(=O)=O)c(N=S3(=O)CCCCC3)c2Cl)c1O [Example 241]	–
97 to 103	Cn1ncc(C(=O)c2ccc(-c3ccco3)c(N=S3(=O)CCCCC3)c2Cl)c1O [Example 228]	–
153 to 155	COCCOc1ccc(C(=O)c2cnn(C)c2O)c(Cl)c1N=S1(=O)CCCCC1 [Example 212]	–
100 to 104	CC(=O)c1ccc(C(=O)c2cnn(C)c2O)c(Cl)c1N=S1(=O)CCCCC1 [Example 255]	–
165 to 167	Cn1ncc(C(=O)c2ccc(O)c(N=S3(=O)CCCCC3)c2Cl)c1O [Example 233]	–
112 to 114	CSCOc1ccc(C(=O)c2cnn(C)c2O)c(Cl)c1N=S1(=O)CCCCC1 [Example 238]	–
158 to 164	Cn1ncc(C(=O)c2ccc(-c3cccs3)c(N=S3(=O)CCCCC3)c2Cl)c1O [Example 214]	–
144 to 146	COc1ccc(C(=O)c2cnn(C)c2O)c(Br)c1N=S1(=O)CCCCC1 [Example 223]	–
131 to 132	COc1ccc(C(=O)c2cnn(C)c2OCC(F)(F)F)c(Cl)c1N=S1(=O)CCCCC1 [Example 235]	–
134 to 137	Cn1ncc(C(=O)c2ccc(Oc3ccccc3)c(N=S3(=O)CCCCC3)c2Cl)c1O [Example 180]	–
159 to 162	COc1ccc(C(=O)C2=C(O)CCCC2=O)c(Cl)c1N=S(C)(=O)c1cccs1 (stereo not drawn) [Example 194]	–
99 to 101	Cn1ncc(C(=O)c2ccc(OCCC3OCCO3)c(N=S3(=O)CCCCC3)c2Cl)c1O [Example 199]	–
129 to 131	COc1ccc(C(=O)c2cnn(C)c2OC(=O)C2CC2)c(Cl)c1N=S1(=O)CCCCC1 [Example 246]	–
124 to 126	N#Cc1ccc(C(=O)C2=C(O)CCCC2=O)c(Cl)c1N=S1(=O)CCCCC1 [Example 186]	–
90 to 92	COc1ccc(C(=O)c2cnn(C)c2O)c(Cl)c1N=S(C)(=O)c1cccs1 (stereo not drawn) [Example 192]	–
